Data as given in paper PMC5537347, “A short D-enantiomeric antimicrobial peptide with potent immunomodulatory and antibiofilm activity against multidrug-resistant Pseudomonas aeruginosa and Acinetobacter baumannii” (Scientific Reports, 2017).
In brackets after ≈: the same amount, converted by molar mass. Read-outs that look alike come from different tables or passages of the source.

Assays:
[1] = test system: C. elegans strain glp-4;sek 1; test: Toxicity of peptides in uninfected C. elegans; format: in vivo, Caenorhabditis elegans; conditions: worms grown four days with peptide; D-RR4 and colistin at 8 × MIC
Experimental: To test the efficacy of the synthetic peptides to protect against infections in vivo, we utilized a C. elegans model of bacterial infection. This model has been used extensively for early-stage evaluation of promising antimicrobials, [35], [36]. Initially, the lethal dose of D-RR4 against uninfected nematodes was determined.
(A) Evaluation of toxicity of peptides in Caenorhabditis elegans. C. elegans strain glp-4;sek 1 was grown for four days in the presence of peptides at different concentrations. Worms were monitored daily and the live worms were counted. Results are expressed as a Kaplan-Meier survival curve. (B) Evaluation of antimicrobial activity of peptides to reduce the bacterial CFU inside infected Caenorhabditis elegans. C. elegans strain glp-4; sek 1 were infected with P. aeruginosa PAO1, colistin-resistant P. aeruginosa 1109, or A. baumannii ATCC BAA-1605. […] After treatment, worms were lysed and bacteria were counted. One asterisk (*) indicates significant difference with the negative control. Two asterisks (**) indicates significant difference with the monotherapy treatment (P < 0.05). Results are expressed as means from three biological replicates ± standard deviation. (C) Efficacy of peptides in a Caenorhabditis elegans model of bacterial infection. […] Worms were monitored daily and the live worms were counted. Results are expressed as a Kaplan-Meier survival curve. C. elegans receiving no treatment served as a negative control.

[2] = test system: murine macrophages (J774.1A); test: Cytotoxicity, MTS assay; conditions: for EC50: 24 h
Experimental: (§1) A significant limitation for translating AMPs into clinical applications is their toxicity to host (mammalian) cells. Herein, we evaluated the cytotoxic effects of our peptide constructs against murine macrophages (J774.1A) and human keratinocytes (HaCaT cells), via the MTS assay.
(§2) The peptides were assayed for potential in vitro toxicity against human keratinocytes (HaCaT) and murine macrophage cells (J774A.1), as described before, with the following modifications. Cells were treated with peptides at different concentrations for 24 hours. The therapeutic index of the peptides was calculated as the ratio of mammalian EC50 (the concentration of peptide that inhibited growth of 50% of the mammalian cells) to the MIC50 of peptides against bacteria.

[3] = test system: human keratinocytes (HaCaT cells); test: Cytotoxicity, MTS assay; conditions: for EC50: 24 h
Experimental: as §1, §2

[4] = test system: P. aeruginosa and A. baumannii isolates
From the text: (§3) The broth microdilution technique was utilized to assess the MIC of designed peptides according to the guidelines of the Clinical and Laboratory Standards Institute (CLSI)[37].

[5] = test system: colistin-resistant P. aeruginosa isolated from cystic fibrosis patients
From the text: as §3

human red blood cells = test: Hemolysis assay; format: cell-based; conditions: for HC50: red cells of human
Experimental: Next, we assessed the hemolytic activity of the peptides on human red blood cells (RBCs).
Peptides were assayed for hemolytic activity against human red blood cells, as described previously.

[6] = test system: intracellular A. baumannii ATCC 19606; format: cell-based; conditions: ATCC 19606, 24 h, 8
Experimental: (§4) Figure 2 Intracellular antibacterial activity of peptides in infected murine macrophage cells (J774A.1). […] Statistical analysis was calculated using one-way ANOVA, with post hoc Tukey’s multiple comparisons test. P < 0.05 was considered significant. One asterisk (*) indicates significance from the negative control. Results are expressed as means from three biological replicates ± standard deviation.
(§5) In order to assess the peptides’ ability to kill intracellular bacteria, murine macrophages (J774A.1) were infected, as described in previous studies[31]–[33], [42], [48]–[51]. Briefly, J774A.1 cells were seeded and incubated as described above for the toxicity assessment. Following incubation, cells were infected with either P. aeruginosa PAO1 or A. baumannii ATCC 19606 (multiplicity of infection 100:1) in DMEM + 10% FBS for two hours. After infection, the wells were washed with 200 µL of media containing gentamicin (50 µg/ml) and further incubated for 30 minutes with gentamicin to kill extracellular bacteria. […] Medium alone was used as a negative control. After incubation, the media was aspirated and washed twice with PBS to remove any residual test agent. Next, 100 µL of PBS containing 0.01% triton X-100 was added to lyse the J774 cells. Subsequently, bacteria were diluted and plated on TSA plates. Plates were incubated at 37 °C for 16 hours. After incubation, bacteria were enumerated and analyzed. The experiment was repeated twice. The average percent reduction of bacterial growth for each treatment regimen has been reported.

[7] = test system: intracellular P. aeruginosa PAO1; format: cell-based; conditions: PAO1, 24 h, 8
Experimental: as §4, §5

P. aeruginosa PAO1 [8] = test: Inner (cytoplasmic) membrane permeabilization assay (propidium iodide); format: cell-based; conditions: D-RR4 5 × and 10 × MIC, LL-37 10 × MIC
Experimental: Damage of the bacterial inner (cytoplasmic) membrane by peptides was monitored by measuring the fluorescence intensity of P. aeruginosa PAO1 combined with propidium iodide and then subsequently treated with D-RR4.
Damage of the bacterial inner (cytoplasmic) membrane after exposure to peptides was evaluated using propidium iodide, as described elsewhere[47].
Data are presented as means ± standard error of the means
indicated by propidium iodide fluorescence.
Each experiment was performed in duplicate, and the
values represent means ± standard deviation.

A. baumannii = format: cell-based
P. aeruginosa PAO1 [9] = test: MIC after treatment with proteases; format: cell-based; conditions: 50 mM Tris-HCl pH 7.4, 37 °C, four hours
Experimental: To examine the ability of peptides to resist proteolytic digestion by mammalian and bacterial proteases, RR4 and D-RR4 were incubated with trypsin or proteinase K at a molar ratio of 500: 1 (peptide: enzyme), respectively, in digestion buffer (50 mM Tris–HCl, pH 7.4) at 37 °C for four hours, as described previously.

[10] = test system: P. aeruginosa PAO1 biofilm; test: Disruption of established biofilms, microtiter dish crystal violet assay; format: cell-based; conditions: for biofilm mass disrupted: mature (24 hour) biofilm, 24 hours at 37 °C, crystal violet OD 595 nm
Experimental: (§6) Figure 1 Efficacy of peptides on established biofilms of P. aeruginosa PAO1 and A. baumannii ATCC BAA-1605. […] After incubation, wells were washed and biofilms were stained with 0.5% (w/v) crystal violet for 30 minutes. The dye was solubilized with ethanol (95%) and the optical density (595 nm) of the biofilm mass was measured. Experiments were repeated twice independently and the average values are reported.
(§7) To examine the peptides’ ability to disrupt bacterial biofilms, the microtiter dish biofilm formation assay was employed[41]–[43].

[11] = test system: A. baumannii ATCC BAA-1605 biofilm; test: as above; format: cell-based; conditions: mature (24 hour) biofilm
Experimental: as §6, §7

[12] = colistin-resistant isolated from cystic fibrosis patients
[13] = colistin-resistant isolates of Table 3

Structure (SMILES): CC[C@@H](C)[C@@H](NC(=O)[C@@H](CCCNC(=N)N)NC(=O)[C@@H](CCCNC(=N)N)NC(=O)[C@@H](CC(C)C)NC(=O)[C@@H](Cc1c[nH]c2ccccc12)NC(=O)[C@@H](C)NC(=O)[C@@H](CCCCN)NC(=O)[C@H](NC(=O)[C@@H](CCCNC(=N)N)NC(=O)[C@@H](CCCNC(=N)N)NC(=O)[C@@H](CC(C)C)NC(=O)[C@H](N)Cc1c[nH]c2ccccc12)[C@H](C)CC)C(=O)N[C@H](CCCCN)C(=O)N[C@H](C)C(N)=O [D-RR4]
- toxicity to uninfected worms [1]: not toxic
- EC50 [2]: 64 µM
- Therapeutic index (TI) ([2]; EC50 (J774.1) over MIC50, 512 µM used where no cytotoxicity at […]): 32
- EC50 [3]: 64 µM
- Therapeutic index (TI) ([3]; EC50 (HaCaT) over MIC50, 512 µM used where no cytotoxicity at […]): 32
- MIC50 [4]: 2 µM (≈ 3.73 µg/mL)
- MIC90 [4]: 4 µM (≈ 7.46 µg/mL)
- MIC against all tested bacterial strains [4]: 2 to 8 µM
- MIC50 [5, 12]: 4 µM (≈ 7.46 µg/mL)
- MIC90 [5, 12]: 16 µM (≈ 29.8 µg/mL)
- Therapeutic index (TI) RBCs (human red blood cells; HC50 over MIC50): 128
- HC50 (human red blood cells): 256 µM
- intracellular bacteria killed [6]: 100.00% ± 0.00
- intracellular bacteria killed [7]: 96.00% ± 1.15

Structure (SMILES): CC[C@H](C)[C@H](NC(=O)[C@H](CCCCN)NC(=O)[C@H](CCC(=O)O)NC(=O)[C@H](CCCCN)NC(=O)[C@H](CO)NC(=O)[C@H](CCCCN)NC(=O)[C@H](CCCNC(=N)N)NC(=O)[C@H](Cc1ccccc1)NC(=O)[C@H](Cc1ccccc1)NC(=O)[C@H](CC(=O)O)NC(=O)CNC(=O)[C@H](CC(C)C)NC(=O)[C@@H](N)CC(C)C)C(=O)NCC(=O)N[C@@H](CCCCN)C(=O)N[C@@H](CCC(=O)O)C(=O)N[C@@H](Cc1ccccc1)C(=O)N[C@@H](CCCCN)C(=O)N[C@@H](CCCNC(=N)N)C(=O)N[C@H](C(=O)N[C@H](C(=O)N[C@@H](CCC(N)=O)C(=O)N[C@@H](CCCNC(=N)N)C(=O)N[C@H](C(=O)N[C@@H](CCCCN)C(=O)N[C@@H](CC(=O)O)C(=O)N[C@@H](Cc1ccccc1)C(=O)N[C@@H](CC(C)C)C(=O)N[C@@H](CCCNC(=N)N)C(=O)N[C@@H](CC(N)=O)C(=O)N[C@@H](CC(C)C)C(=O)N[C@H](C(=O)N1CCC[C@H]1C(=O)N[C@@H](CCCNC(=N)N)C(=O)N[C@H](C(=O)N[C@@H](CCC(=O)O)C(=O)N[C@@H](CO)C(=O)O)[C@@H](C)O)C(C)C)[C@@H](C)CC)C(C)C)[C@@H](C)CC [LL-37, reference compound]
- propidium iodide fluorescence (inner membrane damage) (P. aeruginosa PAO1 [8]): rapid and significant increase in fluorescence
- MIC (A. baumannii; strain ATCC 19606): 2 µM (≈ 8.99 µg/mL)
- MIC (A. baumannii; strain ATCC BAA-747): 8 µM (≈ 35.9 µg/mL)
- MIC (A. baumannii; strain ATCC BAA-1605): 4 µM (≈ 18 µg/mL)
- MIC (A. baumannii; strain NR-9667): 4 µM (≈ 18 µg/mL)
- MIC (A. baumannii; strain NR-13374): 4 µM (≈ 18 µg/mL)
- MIC (A. baumannii; strain NR-13375): 4 µM (≈ 18 µg/mL)
- MIC (A. baumannii; strain NR-13382): 4 µM (≈ 18 µg/mL)
- MIC (A. baumannii; strain NR-17777): 4 µM (≈ 18 µg/mL)
- MIC (A. baumannii; strain NR-17778): 4 µM (≈ 18 µg/mL)
- MIC (A. baumannii; strain NR-17780): 4 µM (≈ 18 µg/mL)
- MIC (A. baumannii; strain NR-17783): 4 µM (≈ 18 µg/mL)
- MIC (A. baumannii; strain NR-17784): 4 µM (≈ 18 µg/mL)
- MIC (A. baumannii; strain NR-17785): 4 µM (≈ 18 µg/mL)
- MIC (A. baumannii; strain NR-17786): 4 µM (≈ 18 µg/mL)
- MIC (A. baumannii; strain NR-19298): 2 µM (≈ 8.99 µg/mL)
- MIC (A. baumannii; strain NR-19299): 8 µM (≈ 35.9 µg/mL)
- MIC50 ([4]; MIC that inhibited growth of 50% of all isolates (Table 2)): 4 µM (≈ 18 µg/mL)
- MIC90 ([4]; MIC that inhibited growth of 90% of all isolates (Table 2)): 32 µM (≈ 144 µg/mL)
- MIC50 [5, 13]: 64 µM (≈ 288 µg/mL)
- MIC90 [5, 13]: >128 µM
- MIC ([5]; strain 1015): >128 µM
- MIC ([5]; strain 1016): >128 µM
- MIC ([5]; strain 1017): >128 µM
- MIC ([5]; strain 1020): 32 µM (≈ 144 µg/mL)
- MIC ([5]; strain 1109): 64 µM (≈ 288 µg/mL)
- MIC ([5]; strain 1125): 128 µM (≈ 575 µg/mL)
- MIC ([5]; strain 1131): 16 µM (≈ 71.9 µg/mL)
- MIC ([5]; strain 1133): 32 µM (≈ 144 µg/mL)
- MIC ([5]; strain 1571): 16 µM (≈ 71.9 µg/mL)
- MIC ([5]; strain 1603): 32 µM (≈ 144 µg/mL)
- MIC ([5]; strain 16011): >128 µM

Structure (SMILES): CC[C@H](C)[C@H](NC(=O)[C@H](CCCNC(=N)N)NC(=O)[C@H](CCCNC(=N)N)NC(=O)[C@H](CC(C)C)NC(=O)[C@H](Cc1c[nH]c2ccccc12)NC(=O)[C@H](C)NC(=O)[C@H](CCCCN)NC(=O)[C@@H](NC(=O)[C@H](CCCNC(=N)N)NC(=O)[C@H](CCCNC(=N)N)NC(=O)[C@H](CC(C)C)NC(=O)[C@@H](N)Cc1c[nH]c2ccccc12)[C@@H](C)CC)C(=O)N[C@@H](CCCCN)C(=O)N[C@@H](C)C(=O)O [RR4]
- MIC (P. aeruginosa PAO1 [9]; after Proteinase K 1:500 (peptide:enzyme 500:1)): > 64 µM
- MIC (P. aeruginosa PAO1 [9]; after Trypsin 1:500 (peptide:enzyme 500:1)): > 64 µM
- EC50 [2]: 64 µM
- EC50 [3]: 128 µM
- biofilm mass reduced ([10]; 0.5× to 1 × MIC, respectively): 20–35%
- biofilm mass disrupted ([10]; 4 × MIC): more than 31%
- biofilm mass disrupted ([10]; 8 × MIC): > 39%
- biofilm mass disrupted ([10]; 16 × MIC): > 41%
- biofilm mass disrupted ([10]; 32 × MIC): > 61%
- biofilm-disrupting activity [11]: concentration-dependent activity
- MIC50 [4]: 4 µM (≈ 7.47 µg/mL)
- MIC90 [4]: 8 µM (≈ 14.9 µg/mL)
- improvement in the MIC over RR ([4]; MIC50 and MIC90): 16 fold
- MIC50 [5, 12]: 8 µM (≈ 14.9 µg/mL)
- MIC90 [5, 12]: 32 µM (≈ 59.7 µg/mL)
- Therapeutic index (TI) RBCs (human red blood cells): 64
- HC50 (human red blood cells): 256 µM
- intracellular bacteria killed [6]: 25.00% ± 8.90
- intracellular bacteria killed [7]: 14.60% ± 5.50
